# Assay results from ChEMBL document CHEMBL4364336, “Synthesis and exploration of 2-morpholino-4-phenylthiazol-5-yl acrylamide derivatives for their effects against carbonic anhydrase I, II, IX and XII isoforms as a non-sulfonamide class of inhibitors” (Bioorg Med Chem, 2019).
# Key:
# Carbonic anhydrase 2 = Carbonic anhydrase 2 (Homo sapiens, UniProt P00918); experiment: Inhibition of recombinant human carbonic anhydrase2 preincubated for 10 mins followed by CO2 solution addition by phenol red dye based stopped flow CO2 hydration assay
# Carbonic anhydrase 12 = Carbonic anhydrase 12 (Homo sapiens, UniProt O43570); experiment: Inhibition of recombinant human carbonic anhydrase12 preincubated for 10 mins followed by CO2 solution addition by phenol red dye based stopped flow CO2 hydration assay
# Chain of Carbonic anhydrase 12 (O43570 whole entry): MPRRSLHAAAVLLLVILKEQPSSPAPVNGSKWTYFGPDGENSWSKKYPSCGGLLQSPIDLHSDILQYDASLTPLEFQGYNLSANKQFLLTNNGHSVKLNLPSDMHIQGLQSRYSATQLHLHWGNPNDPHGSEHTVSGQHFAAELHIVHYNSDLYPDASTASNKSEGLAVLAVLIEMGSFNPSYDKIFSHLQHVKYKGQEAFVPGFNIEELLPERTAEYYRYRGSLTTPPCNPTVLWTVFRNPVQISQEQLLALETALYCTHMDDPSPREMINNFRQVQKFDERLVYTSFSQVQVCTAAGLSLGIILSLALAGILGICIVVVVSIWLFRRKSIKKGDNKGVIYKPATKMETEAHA
# Carbonic anhydrase 9 = Carbonic anhydrase 9 (Homo sapiens, UniProt Q16790); experiment: Inhibition of recombinant human carbonic anhydrase9 preincubated for 10 mins followed by CO2 solution addition by phenol red dye based stopped flow CO2 hydration assay
# Carbonic anhydrase 1 = Carbonic anhydrase 1 (Homo sapiens, UniProt P00915); experiment: Inhibition of recombinant human carbonic anhydrase1 preincubated for 10 mins followed by CO2 solution addition by phenol red dye based stopped flow CO2 hydration assay
# Chain of Carbonic anhydrase 1 (P00915 whole entry): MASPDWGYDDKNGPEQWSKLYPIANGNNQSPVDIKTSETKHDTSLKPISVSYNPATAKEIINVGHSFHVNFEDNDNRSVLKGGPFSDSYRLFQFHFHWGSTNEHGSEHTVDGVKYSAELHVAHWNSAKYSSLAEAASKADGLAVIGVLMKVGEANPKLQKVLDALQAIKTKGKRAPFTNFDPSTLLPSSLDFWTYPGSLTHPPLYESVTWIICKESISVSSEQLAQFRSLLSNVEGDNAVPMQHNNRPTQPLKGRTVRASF
SMILES,Ki (Carbonic anhydrase 2) [µM],Ki (Carbonic anhydrase 12) [µM],Ki (Carbonic anhydrase 9) [µM],Ki (Carbonic anhydrase 1) [µM]
COc1ccc(-c2nc(N3CCOCC3)sc2/C=C/C(=O)Nc2cc(OC)c(OC)c(OC)c2)cc1,> 100,> 100,> 100,> 100
Nc1ccccc1NC(=O)/C=C/c1sc(N2CCOCC2)nc1-c1ccccc1,> 100,> 100,> 100,> 100
COc1cc(NC(=O)/C=C/c2sc(N3CCOCC3)nc2-c2ccccc2)cc(OC)c1OC,> 100,> 100,> 100,> 100
COc1cc(NC(=O)/C=C/c2sc(N3CCOCC3)nc2-c2ccc(Cl)cc2)cc(OC)c1OC,> 100,> 100,> 100,> 100
COc1ccc(-c2nc(N3CCOCC3)sc2/C=C/C(=O)Nc2ccc(OC)c(OC)c2)cc1,> 100,> 100,> 100,> 100
COc1ccc(-c2nc(N3CCOCC3)sc2/C=C/C(=O)Nc2ccc(Br)cc2)cc1,> 100,> 100,> 100,> 100
Nc1ccccc1NC(=O)/C=C/c1sc(N2CCOCC2)nc1-c1ccc(Cl)cc1,> 100,> 100,> 100,> 100
COc1ccc(-c2nc(N3CCOCC3)sc2/C=C/C(=O)Nc2ccccc2N)cc1,> 100,> 100,> 100,> 100
COc1ccc(NC(=O)/C=C/c2sc(N3CCOCC3)nc2-c2ccc(OC)cc2)cc1,> 100,> 100,> 100,> 100

# More lines, now with the values ahead:
Ki (Carbonic anhydrase 2) [µM],Ki (Carbonic anhydrase 12) [µM],Ki (Carbonic anhydrase 9) [µM],Ki (Carbonic anhydrase 1) [µM],SMILES
77.7,> 100,96.7,> 100,Nc1ccccc1NC(=O)/C=C/c1sc(N2CCOCC2)nc1-c1ccc([N+](=O)[O-])cc1
67.8,> 100,96.5,> 100,O=C(/C=C/c1sc(N2CCOCC2)nc1-c1ccc(Cl)cc1)Nc1ccc(Br)cc1
> 100,> 100,> 100,> 100,COc1ccc(NC(=O)/C=C/c2sc(N3CCOCC3)nc2-c2ccccc2)cc1OC
> 100,> 100,> 100,> 100,COc1ccc(NC(=O)/C=C/c2sc(N3CCOCC3)nc2-c2ccccc2)cc1
> 100,> 100,> 100,> 100,COc1ccc(NC(=O)/C=C/c2sc(N3CCOCC3)nc2-c2ccc(Cl)cc2)cc1OC
> 100,> 100,> 100,> 100,COc1ccc(NC(=O)/C=C/c2sc(N3CCOCC3)nc2-c2ccc([N+](=O)[O-])cc2)cc1OC
50.4,7.5,94.9,> 100,COc1ccc(NC(=O)/C=C/c2sc(N3CCOCC3)nc2-c2ccc(Cl)cc2)cc1
> 100,> 100,> 100,> 100,O=C(/C=C/c1sc(N2CCOCC2)nc1-c1ccccc1)Nc1ccc(Br)cc1
9.3,8.8,54.7,> 100,O=C(/C=C/c1sc(N2CCOCC2)nc1-c1ccc([N+](=O)[O-])cc1)Nc1ccc(Br)cc1
39.2,4.6,54.7,> 100,COc1ccc(NC(=O)/C=C/c2sc(N3CCOCC3)nc2-c2ccc([N+](=O)[O-])cc2)cc1
